Results on 38 molecules are retold here after patent publication US20120122870A1, “Treatment Of Ischemia-Reperfusion Injury” (MUSC FOUNDATION FOR RESEARCH DEVELOPMENT, priority 2009, published 2012).

This test deals with endogenous SK activity in MDA-MB-231 cells. In words: Cellular S1P production (endogenous SK activity) in MDA-MB-231 cells. Particulars: Homo sapiens; for inhibition at 20 µg/mL: MDA-MB-231, MDA-MB-231 cells incubated with 20 μg/mL of compound, percentage of S1P production inhibited; for IC50: MDA-MB-231 cells, varying concentrations, concentration inhibiting S1P production by 50%. Format: cell-based. The procedure: Human SK was incubated with 6 μg/mL of the indicated compounds, and then assayed for activity as described above. Values in the column labeled “Recombinant SK (% inhibition)” represent the percentage of SK activity that was inhibited. MDA-MB-231 cells were incubated with 20 μg/mL of the indicated compounds and then assayed for endogenous SK activity as indicated above. Values in the column labeled “Cellular S1P (% inhibition)” represent the percentage of S1P production that was inhibited. Additionally, MDA-MB-231 cells were treated with varying concentration of certain compounds and the amount of S1P produced by the cells was determined. Values in the column labeled “Cellular S1P IC50 (μM)” represent the concentration of compound required to inhibit the production of S1P by 50%. ND=not determined.

Consider `O=C(NCCc1ccc(O)c(O)c1)C12CC3CC(C1)CC(c1ccc(Cl)cc1)(C3)C2` [A44, 3-(4-Chloro-phenyl)-adamantane-1-carboxylic acid [2-(3,4-dihydroxy-phenyl)-ethyl]-amide], for which the inhibition at 20 µg/mL worked out at 88% and half-maximal inhibition (IC50) was put at 35 µM.
As for `CC(C)NCC12CC3CC(C1)CC(c1ccc(Cl)cc1)(C3)C2` [A75, [3-(4-Chloro-phenyl)-adamantan-1-ylmethyl]-isopropyl-amine], the inhibition at 20 µg/mL came out at 41%.
Same read-out and setting: the same measure for `O=C(Nc1ccc(Cl)c(C(F)(F)F)c1)Nc1nc(-c2ccc(Cl)cc2)cs1` [B1, 1-[4-(4-Chloro-phenyl)-thiazol-2-yl]-3-(4-chloro-3-trifluoromethyl-phenyl)-urea]: 32%.
On to `CCCCCCCCCCCCCC(=O)Nc1nc(-c2ccc(Cl)cc2)cs1` [B2, Tetradecanoic acid [4-(4-chloro-phenyl)-thiazol-2-yl]-amide], for which the inhibition at 20 µg/mL is 43%.
As for `C=CCCCCCCCCC(=O)Nc1nc(-c2ccc(Cl)cc2)cs1` [B4, Undec-10-enoic acid [4-(4-chloro-phenyl)-thiazol-2-yl]-amide], the inhibition at 20 µg/mL turned out to be 39%.
In turn, `O=C(C=Cc1ccc([N+](=O)[O-])cc1)Nc1nc(-c2ccc(Cl)cc2)cs1` [B5, N-[4-(4-Chloro-phenyl)-thiazol-2-yl]-3-(4-nitro-phenyl)-acrylamide] had an inhibition at 20 µg/mL of 25%.
On to `CCCCCCCCC=CCCCCCCCC(=O)Nc1nc(-c2ccc(Cl)cc2)cs1` [B6, Octadec-9-enoic acid [4-(4-chloro-phenyl)-thiazol-2-yl]-amide], for which 20 µg/mL produced 21% inhibition.
The same measure, in the same setting: as for `O=C(C=Cc1ccccc1)Nc1nc(-c2ccc(Cl)cc2)cs1` [B7, N-[4-(4-Chloro-phenyl)-thiazol-2-yl]-3-phenyl-acrylamide], the figure is 21%.
Take `CCCC(=O)Oc1ccc(C=CC(=O)Nc2nc(-c3ccc(Cl)cc3)cs2)cc1OC` [B8, Butyric acid 4-{2-[4-(4-chloro-phenyl)-thiazol-2-ylcarbamoyl]-vinyl}-2-methoxy-phenyl ester]: at 20 µg/mL the inhibition was 80% and 34 µM corresponded to half-maximal inhibition (IC50).
Turning to `COc1cc(C=CC(=O)Nc2nc(-c3cccc(Cl)c3)cs2)ccc1O` [B9, N-[4-(3-Chloro-phenyl)-thiazol-2-yl]-3-(4-hydroxy-3-methoxy-phenyl)-acrylamide], testing at 20 µg/mL gave an inhibition of 32%.
Molecule `COc1cc(C=CC(=O)Nc2nc(-c3ccc(Cl)cc3)cs2)ccc1OC(C)=O` [B10, Acetic acid 4-{2-[4-(4-chloro-phenyl)-thiazol-2-ylcarbamoyl]-vinyl}-2-methoxy-phenyl ester] showed an inhibition at 20 µg/mL of 48%.
Same read-out and setting: as for `CCCC(=O)Oc1ccc(C=CC(=O)Nc2nc(-c3ccc(Cl)cc3)cs2)cc1OC(=O)CCC` [B11, Butyric acid 2-butyryloxy-5-{2-[4-(4-chloro-phenyl)-thiazol-2-ylcarbamoyl]-vinyl}-phenyl ester], the figure is 55%; as for `CC(=O)Oc1ccc(C=CC(=O)Nc2nc(-c3ccc(Cl)cc3)cs2)cc1` [B12, Acetic acid 4-{2-[4-(4-chloro-phenyl)-thiazol-2-ylcarbamoyl]-vinyl}-phenyl ester], 13%.
`CCCC(=O)Oc1ccccc1C=CC(=O)Nc1nc(-c2ccc(Cl)cc2)cs1` [B13, Butyric acid 2-{2-[4-(4-chloro-phenyl)-thiazol-2-ylcarbamoyl]-vinyl}-phenyl ester]: the inhibition at 20 µg/mL came to 0%.
The same measure, in the same setting: as for `CCCC(=O)Oc1cccc(C=CC(=O)Nc2nc(-c3ccc(Cl)cc3)cs2)c1` [B14, Butyric acid 3-{2-[4-(4-chloro-phenyl)-thiazol-2-ylcarbamoyl]-vinyl}-phenyl ester], the figure is 39%; as for `CCCC(=O)Oc1ccc(C=CC(=O)Nc2nc(-c3ccc(Cl)cc3)cs2)cc1` [B15, Butyric acid 4-{2-[4-(4-chloro-phenyl)-thiazol-2-ylcarbamoyl]-vinyl}-phenyl ester], 23%; as for `CCCC(=O)Oc1ccc(CC(=O)Nc2nc(-c3ccc(Cl)cc3)cs2)cc1OC` [B16, Butyric acid 4-{[4-(4-chloro-phenyl)-thiazol-2-ylcarbamoyl]-methyl}-2-methoxy-phenyl ester], 83%.
The molecule `CCCC(=O)Oc1ccc(CC(=O)Nc2nc(-c3ccc(Cl)cc3)cs2)cc1OC(=O)CCC` [B17, Butyric acid 2-butyryloxy-5-{[4-(4-chloro-phenyl)-thiazol-2-ylcarbamoyl]-methyl}-phenyl ester] returned an inhibition at 20 µg/mL of 57%.
On the same count and under the same terms, as for `CCCC(=O)Oc1cc(C=CC(=O)Nc2nc(-c3ccc(Cl)cc3)cs2)ccc1OC` [B18, Butyric acid 5-{2-[4-(4-chloro-phenyl)-thiazol-2-ylcarbamoyl]-vinyl}-2-methoxy-phenyl ester], the figure is 65%; as for `CCCC(=O)Oc1ccc(C=CC(=O)Nc2nc(-c3ccc(C)cc3)cs2)cc1OC` [B19, Butyric acid 2-methoxy-4-[2-(4-p-tolyl-thiazol-2-ylcarbamoyl)-vinyl]-phenyl ester], 53%; as for `CCCC(=O)Oc1ccc(C=CC(=O)Nc2nc(-c3ccc(Br)cc3)cs2)cc1OC` [B20, Butyric acid 4-{2-[4-(4-bromo-phenyl)-thiazol-2-ylcarbamoyl]-vinyl}-2-methoxy-phenyl ester], 62%.
The same measure, in the same setting: as for `O=C(C=Cc1ccc2c(c1)OCO2)Nc1nc(-c2ccc(Cl)cc2)cs1` [B21, 3-Benzo[1,3]dioxol-5-yl-N-[4-(4-chloro-phenyl)-thiazol-2-yl]-acrylamide], the figure is 41%; as for `O=C(Cc1ccc2c(c1)OCO2)Nc1nc(-c2ccc(Cl)cc2)cs1` [B22, 2-Benzo[1,3]dioxol-5-yl-N-[4-(4-chloro-phenyl)-thiazol-2-yl]-acetamide], 33%.
Still for that read-out and setting: as for `COc1ccc(CCC(=O)Nc2nc(-c3ccc(Cl)cc3)cs2)cc1OC` [B23, N-[4-(4-Chloro-phenyl)-thiazol-2-yl]-3-(3,4-dimethoxy-phenyl)-propionamide], the figure is 14%; as for `CCCC(=O)Oc1ccc(C(=O)Nc2nc(-c3ccc(Cl)cc3)cs2)cc1OC` [B24, Butyric acid 4-[4-(4-chloro-phenyl)-thiazol-2-ylcarbamoyl]-2-methoxy-phenyl ester], 69%; as for `CCCC(=O)Oc1ccc(C(=O)Nc2nc(-c3ccc(Cl)cc3)cs2)cc1OC(=O)CCC` [B25, Butyric acid 2-butyryloxy-4-[4-(4-chloro-phenyl)-thiazol-2-ylcarbamoyl]-phenyl ester], 79%.
Molecule `CCCC(=O)Oc1ccc(CCC(=O)Nc2nc(-c3ccc(Cl)cc3)cs2)cc1OC(=O)CCC` [B26, Butyric acid 2-butyryloxy-4-{2-[4-(4-chloro-phenyl)-thiazol-2-ylcarbamoyl]-ethyl}-phenyl ester] showed an inhibition at 20 µg/mL of 79%.
Take `CCCC(=O)Oc1cc(C(=O)Nc2nc(-c3ccc(Cl)cc3)cs2)cc(OC(=O)CCC)c1OC(=O)CCC` [B27, Butyric acid 2,6-bis-butyryloxy-4-[4-(4-chloro-phenyl)-thiazol-2-ylcarbamoyl]-phenyl ester]: the inhibition at 20 µg/mL amounted to 68%.
Still for that read-out and setting: the same measure for `CCCC(=O)Oc1ccc(C=CC(=O)Nc2nc(-c3ccc(F)cc3)cs2)cc1OC` [B28, Butyric acid 4-{2-[4-(4-fluoro-phenyl)-thiazol-2-ylcarbamoyl]-vinyl}-2-methoxy-phenyl ester]: 65%; for `O=C(NCc1ccncc1)c1nc(-c2ccc(Cl)cc2)cs1` [B34, 4-(4-Chloro-phenyl)thiazole-2-carboxylic acid (pyridin-4-ylmethyl)amide]: 28%; for `CN(C)c1ccc(CNC(=O)c2nc(-c3ccc(Cl)cc3)cs2)cc1` [B35, 4-(4-Chloro-phenyl)-thiazole-2-carboxylic acid 4-dimethylamino-benzylamide]: 17%.
For the molecule `O=C(NCc1cc(F)cc(F)c1)c1nc(-c2ccc(Cl)cc2)cs1` [B36, 4-(4-Chloro-phenyl)-thiazole-2-carboxylic acid 3,5-difluoro-benzylamide], the inhibition at 20 µg/mL was determined as 0%.
The same measure, in the same setting: the same measure for `O=C(NCc1ccc(Cl)c(C(F)(F)F)c1)c1nc(-c2ccc(Cl)cc2)cs1` [B37, 4-(4-Chloro-phenyl)-thiazole-2-carboxylic acid 4-chloro-3-trifluoromethyl-benzylamide]: 0%.
Still for that read-out and setting: the same measure for `O=C(NCc1ccc(F)cc1Cl)c1nc(-c2ccc(Cl)cc2)cs1` [B38, 4-(4-Chloro-phenyl)-thiazole-2-carboxylic acid 2-chloro-4-fluoro-benzylamide]: 0%; for `O=C(NCc1ccc(F)c(Cl)c1)c1nc(-c2ccc(Cl)cc2)cs1` [B39, 4-(4-Chloro-phenyl)-thiazole-2-carboxylic acid 3-chloro-4-fluoro-benzylamide]: 0%; for `O=C(NCc1ccc(F)c(F)c1)c1nc(-c2ccc(Cl)cc2)cs1` [B40, 4-(4-Chloro-phenyl)-thiazole-2-carboxylic acid 3,4-difluoro-benzylamide]: 0%.
Molecule `COc1ccc(CCNC(=O)c2nc(-c3ccc(Cl)cc3)cs2)cc1Br` [B41, 4-(4-Chloro-phenyl)-thiazole-2-carboxylic acid [2-(3-bromo-4-methoxy-phenyl)-ethyl]-amide] displayed an inhibition at 20 µg/mL of 0%.
The same measure, in the same setting: as for `O=C(NCc1cc(F)c(F)c(F)c1)c1nc(-c2ccc(Cl)cc2)cs1` [B42, 4-(4-Chloro-phenyl)-thiazole-2-carboxylic acid 3,4,5-trifluoro-benzylamide], the figure is 0%.
